Activity calls are given as the source filed them. The rule behind the calls is not given here.

The assay deals with Peptidyl-prolyl cis-trans isomerase FKBP1A (Homo sapiens) (UniProt P62942). The assay is described as follows: small-molecule binding to FKBP12 – biophysical, NMR detection (AID 608). Conditions: purified FKBP12.
Chain of Peptidyl-prolyl cis-trans isomerase FKBP1A (Homo sapiens) (P62942 whole entry, looked up): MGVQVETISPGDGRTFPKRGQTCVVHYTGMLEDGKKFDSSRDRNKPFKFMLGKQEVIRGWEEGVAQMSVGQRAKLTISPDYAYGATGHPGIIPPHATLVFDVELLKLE
Usually Kd stands for a measure of binding affinity in units of concentration. For `Cc1cc(C)c(C#N)c(N2CCCC2)n1`, the Kd was > 4 mM (inactive). The same measure for `NC(=O)Cn1nc(-c2ccco2)ccc1=O`: > 4 mM (inactive); for `CC(=O)Nc1ccc(N2C(=O)C=CC2=O)cc1C`: > 4 mM (inactive).

On to `CC(C)NC(=S)N1CCN(S(C)(=O)=O)CC1`, for which the Kd was > 4 mM (inactive). For `COc1ccc(/C=N/n2cn[nH]c2=S)cc1`, the Kd is > 4 mM (inactive).

For `CSc1ccccc1NC(=O)c1ccoc1C`, the Kd was > 4 mM (inactive). For the compound `O=C1C=CC(=O)N1c1ccccc1O`, the Kd is > 4 mM (inactive).

As for `CNC(=O)c1ccc([N+](=O)[O-])cc1Cl`, the Kd was > 4 mM (inactive).

As to `N/C(=N/S(=O)(=O)c1cccs1)c1ccccc1`, the Kd was > 4 mM (inactive).

Take `CC(C)c1c(O)ccc2c1CCC1[C@@](C)(CO)CCC[C@]21C` (stereo partly specified): the Kd was > 4 mM (inactive). The figure for `Cc1nc(-c2cnccn2)sc1C(=O)O` is > 4 mM (inactive).

With `O=C(O)C(O)C(O)C(O)C(O)C(=O)O` (stereo unspecified), the Kd is > 4 mM (inactive). `Cc1cccc(-n2c(N)cc(=O)[nH]c2=S)c1`: the Kd is > 4 mM (inactive). On to `S=C1NC(=S)NC(c2ccc3c(c2)OCO3)N1`, for which the Kd was > 4 mM (inactive). As to `O=C1NC(=S)NC(=O)C1=Cc1ccncc1`, the Kd was > 4 mM (inactive). The figure for `Cc1c(C(=O)Nn2cnnc2)oc2ccccc12` is > 4 mM (inactive); for `Cn1nc(C(=O)N2CCCC2)c2ccccc2c1=O` it is > 4 mM (inactive). The figure for `CC(=O)Nc1ccc(NC(=O)c2ccnn2C)cc1` is > 4 mM (inactive); for `Cc1ccccc1N1CCN(C(=O)C2CCCCC2)CC1` it is > 4 mM (inactive); for `CN1CCC(NC(=O)c2c(F)cccc2Cl)CC1` it is > 4 mM (inactive). The figure for `CC(=O)N1N=C(N)SC1c1cccnc1` (stereo unspecified) is > 4 mM (inactive); for `CC1CCN(C(=O)c2cc3ccccc3o2)CC1` it is > 4 mM (inactive). With `c1cc2n(c1)CCNC2c1ccncc1` (stereo unspecified), the Kd was > 4 mM (inactive). In the case of `C=C1CCC2C(CC2(C)C)C(=O)CCC1O` (stereo unspecified), the Kd was > 4 mM (inactive). For `O=C(O)c1cc2ccccc2cn1`, the Kd is > 4 mM (inactive). Regarding `Cc1ccccc1-n1c(-c2ccncc2)n[nH]c1=S`, the Kd is > 4 mM (inactive). On to `Cc1cc2ncc(C(=O)Nc3ccccc3)c(C)n2n1`, for which the Kd result is “inactive”. On to `COC(=O)C1COCCN1C(=O)CS(=O)(=O)c1ccc(C(C)C)cc1` (stereo unspecified), for which the Kd result is “inactive”. For `O=C(Cc1cccs1)Nc1ccccn1`, the Kd was > 4 mM (inactive). On to `CN(Cc1nc2ccccc2n1C)C(=O)c1cccs1`, for which the Kd was > 4 mM (inactive). Take `COc1cccc2c1CCC1=CC(=O)CC[C@@]12C`: the Kd was > 4 mM (inactive).

Consider `CC1(C)C2CC[C@]3(C)C(C(=O)C=C4[C@@H]5C[C@@](C)(C(=O)O)CC[C@]5(C)CC[C@]43C)[C@@]2(C)CC[C@@H]1O` (stereo partly specified), for which the Kd was > 4 mM (inactive). As for `CC(=O)N1CC2(C)CN(C(C)=O)CC(C)(C1)C2O` (stereo unspecified), the Kd was > 4 mM (inactive).

Take `c1ccn(Cc2ccncc2)c1`: the Kd is > 4 mM (inactive). For the compound `O=[N+]([O-])c1c[n+]([O-])n(-c2ccccc2)n1`, the Kd was > 4 mM (inactive). For the compound `Cc1cc(C(=O)NCc2cccnc2)no1`, the Kd was > 4 mM (inactive). The figure for `CCOC(=O)C1=C(C)N2CCN=C2S1` is > 4 mM (inactive). For the compound `Cc1ccc(CO)o1`, the Kd was > 4 mM (inactive). For `O=C(Nc1nnc(-c2cccnc2)o1)c1ccccc1F`, the Kd was > 4 mM (inactive).

For `O=C1CCCc2c(O)cccc21`, the Kd is > 4 mM (inactive). The same measure for `O=C(c1ccco1)N1CCNCC1`: > 4 mM (inactive).

For the compound `NC(=O)CSc1ccc(-c2ccco2)nn1`, the Kd was > 4 mM (inactive). With `CN1C(CC(=O)c2ccccc2)CCCC1CC(O)c1ccccc1` (stereo unspecified), the Kd is > 4 mM (inactive). The same measure for `O=C1CCc2ccccc2CN1`: > 4 mM (inactive); for `O=C(Nc1ccc(N2CCOCC2)cc1)c1cnsn1`: > 4 mM (inactive); for `COCc1cc(=O)oc2cc(O)c(Cl)cc12`: > 4 mM (inactive). Turning to `COc1cc2c(cc1OC)C(=O)OC2`, the Kd was > 4 mM (inactive).

As to `COc1c2c(cc3c1OCO3)C13C=C[C@H](OC)CC1N(C2)CC3O` (stereo partly specified), the Kd was > 4 mM (inactive).

Take `C/C=C1\[C@H]2C=C(C)C[C@]1(N)c1ccc(=O)[nH]c1C2`: the Kd was > 4 mM (inactive). For the compound `CCC(=O)Oc1ccc(N2C(=O)CCC2=O)cc1`, the Kd is > 4 mM (inactive). On to `Nc1ccc2c(c1)CCCC2=O`, for which the Kd was > 4 mM (inactive). Turning to `O=C(O)CSCc1c(F)cccc1Cl`, the Kd was > 4 mM (inactive). The figure for `O=C1CSC(c2ccccc2)N1` (stereo unspecified) is > 4 mM (inactive).

For the compound `NCc1nnnn1-c1ccccc1`, the Kd is > 4 mM (inactive).

Turning to `CS(=O)(=O)CCCCN=C=S`, the Kd was > 4 mM (inactive). For `CCOC(=O)c1ccc(F)cc1F`, the Kd is > 4 mM (inactive). Regarding `COc1cc(OC)c2c(=O)c(O)c(-c3ccc(OC)c(OC)c3)oc2c1`, the Kd was > 4 mM (inactive). Regarding `C=CCN1CC[C@]23c4c5ccc(O)c4OC2C(=O)CC[C@@]3(O)[C@H]1C5` (stereo partly specified), the Kd was > 4 mM (inactive). Take `COc1ccc(-c2noc(-c3ccco3)n2)cc1OC`: the Kd was > 4 mM (inactive). The figure for `CN1C(=O)C(Cc2c[nH]c3ccccc23)C(=O)N(C)C1=O` is > 4 mM (inactive); for `COc1ccc2c(Cl)c(C(=O)N3CCOCC3)sc2c1Cl` it is “inactive”. As for `COc1cc2c(cc1OC)C1=C(C#N)CCC(=O)N1CC2`, the Kd is > 4 mM (inactive). With `CCC(C)C(=O)c1c(O)c(C)c2oc3c(C)c(O)c(C(=O)C(C)CC)c(O)c3c2c1O` (stereo unspecified), the Kd is > 4 mM (inactive). For the compound `CCNC(=O)CC1Nc2ccccc2NC1=O` (stereo unspecified), the Kd is > 4 mM (inactive). In the case of `NC(=O)c1ccc(N2CCCCC2)c(N)c1`, the Kd was > 4 mM (inactive). The figure for `C(=Nn1cnnc1)c1ccccc1` is > 4 mM (inactive); for `C1CCN2C[C@@H]3C[C@H](CN4CCCC[C@@H]34)[C@H]2C1` it is > 4 mM (inactive). The same measure for `O=C(O)c1ccc2ncccc2c1`: > 4 mM (inactive). `C=C1C[C@]23C[C@@]1(O)CC[C@H]2[C@@]12C=C[C@H](O)C(C)(C(=O)O1)[C@H]2[C@@H]3C(=O)O`: the Kd was > 4 mM (inactive). The figure for `NNC(=O)c1ccccc1-n1cccc1` is > 4 mM (inactive); for `COC(=O)c1ccc2nc[nH]c2c1` it is > 4 mM (inactive). On to `NC(=O)c1oc2ccccc2c1N`, for which the Kd was > 4 mM (inactive). As to `CC1(C)CC2(CCO1)NCCN1C(=O)CSC12` (stereo unspecified), the Kd is > 4 mM (inactive).

For `O=C(c1ccccc1-c1ccccc1)N1CCOCC1`, the Kd is > 4 mM (inactive).

For the compound `COC(=O)NCc1cc2cc(Cl)ccc2[nH]1`, the Kd was > 4 mM (inactive). The figure for `CC1(C)CC2C1CC[C@]1(C)CCC3C(C(=O)O)CC(=O)O[C@@]32C1` (stereo partly specified) is > 4 mM (inactive).

For the origin of these results see PubChem BioAssay AID608 (Sanford-Burnham Center for Chemical Genomics, 2007).
